Measured values: publication PMC3740496, “Synthesis and biological activities of the respiratory chain inhibitor aurachin D and new ring versus chain analogues” (Beilstein Journal of Organic Chemistry, 2013)
Converted amounts (≈) assume the structure as drawn.

How the values were obtained:
bacterial cytochrome bd = system: bacterial cytochrome bd; parameters: method as in PMID 7827023; conditions: cited from earlier work
[1] = system: Vero cells (nontumor cells); experiment: Cytotoxicity on Vero cells (MTT); format: cell-based; conditions: 48 h incubation
Protocol: (§1) was further incubated for 1.5 h. The medium was then discarded and 100 µL 2-propanol/10 N HCl (250:1) was added in order to dissolve formazan granules. The absorbance at 570 nm was measured using a microplate reader (EL808, Bio-Tek Instruments Inc.) and cell viability was expressed as a percentage relative to the respective solvent control. VERO cells: VERO cells were seeded into 96-well microplates at 10^5 cells per mL in RPMI supplemented with 10% foetal calf serum.
After 24 h, the cells were washed and two microliters of two-fold serial dilutions of each compound (10 mg/mL) was added to 100 μL of medium. Cells were then incubated for 48 h at 37 ° C under a 5% CO2 atmosphere. At the end of incubation, 20 µL of MTT solution (5 mg/mL) was added to each well and further incubated for 4 h at 37 °C to allow the formation of formazan. The crystals of formazan were then dissolved with 100 µL of a freshly prepared solution of sodium dodecyl sulfate (SDS) 10% (15 mL) and HCl 1 N (150 µL). The optical density of each well was measured at 595 nm using a multiwell plate reader. The 50% inhibition concentration was then determined by curve fitting.
MMP assay: Human U-2 OS osteosarcoma cells (HTB-96) were obtained from the American Type Culture Collection (ATCC) and were cultured under the conditions recommended by the depositor. Cells from actively growing cultures were harvested and seeded at 8 × 10^3 cells per well in 96-well imaging plates (BD Falcon). After 1 d cells reached approximately 60% confluency and were treated with aurachin analogues at the assigned concentrations for 16 h. In addition, cells were stimulated with 1 µM FCCP [carbonyl cyanide 4-(trifluoromethoxy)phenylhydrazone] as a positive control 1 h prior to the measurement. For labeling, cells were washed twice with assay buffer ([…], 5.4 mM KCl, 2 mM MgCl2, 10 mM glucose, 2 mM CaCl2, 10 mM HEPES; pH 7.35) and 100 µL of a staining solution (50 nM TMRM,

[2] = Cytotoxicity, growth inhibition (MTT); format: cell-based, human; conditions: human, cell line not named at the place (Table 2: HCT-116 and K562); read-out: cytotoxic activity (IC50) on mammalian cell lines
Protocol: The cytotoxic activity of aurachin D (4) and analogues 9–11 and 17–19 was evaluated in growth inhibition experiments on mammalian cell lines (Table 2). After 5 days treatment, half inhibitory concentrations (IC50) were determined for human HCT-116 colon carcinoma and human K562 myelogenous leukemia cells. […]
as §1, with “VERO cells: VERO cells were seeded into 96-well microplates at 10^5 cells per mL in RPMI supplemented with 10% foetal calf serum.” left out

Compound | inhibition of the cytochrome bd complex (bacterial cytochrome bd) | IC50 [1] | melting point | IC50 at 5 days [2]
CC(C)=CCC/C(C)=C/CC/C(C)=C/Cc1c(C)[nH]c2ccccc2c1=O [compound 4, aurachin D] | selectively inhibit | 13.8 µg/mL (≈ 38 µM) | – | –
CC(C)=CCC/C(C)=C/Cc1c(C)[nH]c2ccccc2c1=O [compound 9] | – | – | 187 to 189 °C | –
COc1ccc2[nH]c(C)c(CC=C(C)CCC=C(C)CCC=C(C)C)c(=O)c2c1 [compound 18] | – | – | – | ~1 µg/mL (≈ 2.54 µM)
CC(C)=CCCC(C)=CCCC(C)=CCc1c(C)[nH]c2cc3c(cc2c1=O)OCO3 [compound 19] | – | 4.4 µg/mL (≈ 10.8 µM) | 298 to 300 °C (dec.) | –
